Laboratory results published in article PMC12190436, “5-Ene-2-arylaminothiazol-4(5H)-ones Induce Apoptosis in Breast Cancer Cells” (Cells, 2025).
Structures can show the parent of a compound that is named as a salt. Where two headings read alike, the source gives them in different places.

Experiments:
MCF-7 cells [1] = test: Scratch assay (cell migration); type: cell-based, human; conditions: 24 h
Procedure: To assess the effects of the tested compounds on cell migration, the scratch assay method was applied [34]. Cells were seeded in 24-well plates at 2 × 10^5 cells per well in 1 mL medium and incubated overnight. Afterwards, they were left in an incubator at 37 °C for 24 h to attach to the wells. The next day, scratches were made using a 200 µL pipette tip in confluent monolayers. […] Images were obtained by utilizing a Nikon ECLIPSE Ti microscope (Nikon, Tokyo, Japan) after 0, 24, and 48 h. The area of the scratches was measured manually via ImageJ software version 1.54k (Bethesda, MD, USA).
The MCF-7 breast cancer cells were treated for 24 h with the tested compounds in concentrations of 5, 2.5, and 1 µM and doxorubicin hydrochloride in concentrations of 1 and 0.5 µM.

caspase 7 = test: FLICA caspase-3/7 activity, flow cytometry; type: cell-based, human; conditions: 5 µM, 24 h, MCF-7
Procedure: (§1) To determine the effects of the novel compounds on the caspases-3/7, caspase-8, caspase-9, and caspase-10 activity, the FLICA Caspase-3/7 Assay Kit, FLICA Caspase-8 Assay Kit, FLICA Caspase-9 Assay Kit, and FLICA Caspase-10 Assay Kit were applied (ImmunoChemistry Technologies, Bloomington, MN, USA). MCF-7 cells were seeded on 6-well plates (1 × 10^5 cells per well) and incubated for 24 h. Afterwards, they were treated for 24 h with tested compounds (Les-6416, Les-6418, Les-6381, Les-6423, and Les-6424) in a concentration of 5 µM and the reference drug doxorubicin hydrochloride in a concentration of 0.5 µM. Next, cells were amassed and washed two times with cold PBS, followed by resuspension in an Apoptosis Wash Buffer to a final concentration of 5 × 10^5 cells/mL. Afterwards, 290 µL of the prepared cell suspensions were transferred into tubes, followed by the addition of 10 µL of FLICA solution, prepared immediately before use, to each sample and incubated for an hour at 37 °C. Next, cells were washed two times with 2 mL of Apoptosis Wash Buffer, provided in the kit, centrifuged, and resuspended in 300 µL of the buffer. Prepared samples were assessed by a BD FACSCanto II flow cytometer (Becton Dickinson Biosciences, San Jose, CA, USA). For each sample, 1 × 10^4 events were analyzed. The obtained results were investigated by applying FACSDiva software Version 6.1.3 (BD Biosciences Systems, San Jose, CA, USA).
To further investigate the effects of the newly synthesized compounds on the process of apoptosis we decided to measure their impact on various caspases as evidence of intrinsic (caspase 9) or extrinsic (caspase 8, 10) pathways of programmed cell death by applying flow cytometry analysis after 24 h treatment of MCF-7 breast cancer cells with novel 4-thiazolidinone derivatives and reference drug doxorubicin hydrochloride. […] With 41.28 ± 5.45%, 43.23 ± 2.85%, and 41.90 ± 6.89% of cells with activated caspase 8, 10, and 9, respectively, Les-6416 continued the trend of displaying the most significant effect on the three tested caspases. […]

MCF-7 cells [2] = test: JC-1 mitochondrial membrane potential, flow cytometry; type: cell-based, human; conditions: 5 µM, 24 h, MCF-7, JC-1
Procedure: Lipophilic fluorochrome JC-1 (5,5′,6,6′-tetrachloro-1,1′,3,3′-tetraethylbenzimidazolcarbocyanine iodide) (BD Biosciences, San Diego, CA, USA) was applied to determine the novel structures’ effects on the MMP [35]. MCF-7 cells were seeded on 6-well plates at 5 × 10^6 cells per well, followed by incubation for 24 h. Afterwards, the cells were treated for 24 h with new 4-thiazolidinone derivatives (Les-6416, Les-6418, Les-6381, Les-6423, and Les-6424) in a concentration of 5 µM and the reference drug doxorubicin hydrochloride in a concentration of 0.5 µM. Then, cells were collected at a concentration of 1 × 10^6 cells/mL and washed two times with PBS. Next, 0.5 mL of the pre-prepared JC-1 working solution was added to each sample in accordance with the instructions of the manufacturer, followed by incubation at 37 °C for 15 min in a CO2 incubator. After that, an assay buffer was added to each sample to wash the cells several times. Afterwards, 0.5 mL from each sample was transferred to the tubes for immediate assessment using a BD FACSCanto II flow cytometer (Becton Dickinson Biosciences, San Jose, CA, USA). For each sample, 1 × 10^4 events were analyzed. The obtained results were investigated by applying FACSDiva software Version 6.1.3 (BD Biosciences Systems, San Jose, CA, USA).
A critical determinant of the induction of the intrinsic pathway of apoptosis is the decrease in mitochondrial membrane potential (ΔΨm). To investigate the effects of the novel 4-thiazolidinones on mitochondrial membrane potential, flow cytometry analysis of JC-1 dye was applied. JC-1 is a carbocyanine lipophilic cationic fluorochrome whose fluorescence depends on the MMP. Red fluorescence is emitted in viable cells with healthy mitochondria; however, apoptotic or necrotic cells with damaged mitochondria emit green fluorescence.

[3] = tested on: panel of 60 cancer cell lines; type: cell-based; conditions: for Mean Growth, % / Range of Growth, % / Positive Cytostatic Effect / Positive Cytotoxic Effect: 10 μM; for Mean Growth, % / Range of Growth, %: one dose; for Positive Cytostatic Effect: number of cell lines with GP from 0 to 50 / total number of cell lines; for Positive Cytotoxic Effect: number of cell lines with GP of <0 / total number of cell lines; for LC50: read-out: MG_MID_60 LC50
HL-60(TB) = type: cell-based
NCI-H460 = type: cell-based; conditions: for Growth %: NCI-H460, 10 μM, one dose, 48 h
NCI-H522 = type: cell-based
HT29 = type: cell-based
SF-295 = type: cell-based; conditions: for Growth %: SF-295, 10 μM, one dose, 48 h
SK-MEL-5 = type: cell-based
MCF7 = type: cell-based
caspase 9 = test: FLICA caspase-9 activity, flow cytometry; type: cell-based, human; conditions: 5 µM, 24 h, MCF-7
Procedure: as §1, with “The obtained results were investigated by applying FACSDiva software Version 6.1.3 (BD Biosciences Systems, San Jose, CA, USA).” left out

caspase 10 = test: FLICA caspase-10 activity, flow cytometry; type: cell-based, human; conditions: 5 µM, 24 h, MCF-7
Procedure: as §1, with “The obtained results were investigated by applying FACSDiva software Version 6.1.3 (BD Biosciences Systems, San Jose, CA, USA).” left out

COc1cccc2c1C(=O)c1c(O)c3c(c(O)c1C2=O)C[C@@](O)(C(=O)CO)C[C@@H]3O[C@H]1C[C@H](N)[C@H](O)[C@H](C)O1 [DOX, Doxorubicin hydrochloride, reference compound]
Closure of the gap area (MCF-7 cells [1]; 0.5 µM): 25.50 ± 20.51%

COc1ccc(C=C2SC(Nc3cc(OC)c(OC)c(OC)c3)=NC2=O)cc1 [Les-6381, 5-(4-Methoxybenzylidene)-2-((3,4,5-trimethoxyphenyl)amino)thiazol-4(5H)-one]
cells with active caspase 7 (caspase 7): 15.05 ± 1.73% | Reduced ΔΨm, cell population (MCF-7 cells [2]): 27.95 ± 1.43%

COc1cc(NC2=NC(=O)C(=Cc3ccc4cc[nH]c4c3)S2)cc(OC)c1OC [Les-6416, 5-((1H-Indol-6-yl)methylene)-2-((3,4,5-trimethoxyphenyl)amino)thiazol-4(5H)-one]
Mean Growth, % ([3]; 48 h): 39.56% | Range of Growth, % ([3]; 48 h): −33.26–97.05% | Positive Cytostatic Effect [3]: 38/58 | Positive Cytotoxic Effect [3]: 2/58 | Growth % (HL-60(TB); HL60(TB), 10 μM, one dose, 48 h): 15.10% | Growth % (NCI-H460): 17.93% | Growth % (NCI-H522; NCI-H522, 10 μM, one dose, 48 h): 3.77% | Growth % (HT29; HT29, 10 μM, one dose, 48 h): 7.66% | Growth % (SF-295): 5.01% | Growth % (SK-MEL-5; SK-Mel-5, 10 μM, one dose, 48 h): −4.74% | Growth % (MCF7; MCF-7, 10 μM, one dose, 48 h): 6.76% | Closure of the gap area (MCF-7 cells [1]; 1 µM): 21.00 ± 7.07% | cells with active caspase 7 (caspase 7): 47.90 ± 0.57% | cells with active caspase 9 (caspase 9): 41.90 ± 6.89% | cells with active caspase 10 (caspase 10): 43.23 ± 2.85% | Reduced ΔΨm, cell population (MCF-7 cells [2]): 33.80 ± 0.85%

COc1cc(NC2=NC(=O)C(=Cc3c[nH]c4ccccc34)S2)cc(OC)c1OC [Les-6418, 5-((1H-Indol-3-yl)methylene)-2-((3,4,5-trimethoxyphenyl)amino)thiazol-4(5H)-one]
Mean Growth, % ([3]; 48 h): −43.64% | Range of Growth, % ([3]; 48 h): −88.00–14.92% | Positive Cytostatic Effect [3]: 7/59 | Positive Cytotoxic Effect [3]: 52/59 | LC50 ([3]; Homo sapiens, 48 h, full panel mean, 48 h): 56.6 µM | GI50 ([3]; Homo sapiens, CCRF-CEM, HL-60(TB), SR, NCI-H522, HT29, KM12, MDA-MB-435, OVCAR-3, ACHN, BT-549, MDA-MB-468, read-out: GI50, submicromolar concentration range): 0.28 to 0.98 µM | GI50 ([3]; Homo sapiens, full panel mean, 48 h, read-out: MG_MID_60 GI50): 3.27 µM | MG_MID_60 TGI ([3]; full panel mean, 48 h): 18.6 µM | LC50 ([3]; full panel mean, 48 h): 56.5 µM | SI against certain types of cancer ([3]; subpanel selectivity indices at studied dose–response parameters): 0.71–1.60 | TGI (HL-60(TB); HL-60(TB), 48 h): 11.1 µM | SI (TGI) (HL-60(TB); HL-60(TB), MG_MID_60/value): 1.68 | GI50 (HL-60(TB); Homo sapiens, HL-60(TB), 48 h): 0.855 µM | CC50 (HL-60(TB); Homo sapiens, HL-60(TB), 48 h, read-out: LC50 (the source's name)): > 100 µM | GI50 (NCI-H460; Homo sapiens, NCI-H460, 48 h): 2.1 µM | LC50 (50% lethal concentration) (NCI-H460; Homo sapiens, NCI-H460, 48 h): 92 µM | Growth % (NCI-H460): −77.59% | TGI (NCI-H460; NCI-H460, 48 h): 14.3 µM | SI (TGI) (NCI-H460; NCI-H460, MG_MID_60/value): 1.30 | GI50 (NCI-H522; Homo sapiens, NCI-H522, 48 h): 0.403 µM | CC50 (NCI-H522; Homo sapiens, NCI-H522, 48 h, read-out: LC50 (the source's name)): 46 µM | TGI (NCI-H522; NCI-H522, 48 h): 5.56 µM | SI (TGI) (NCI-H522; NCI-H522, MG_MID_60/value): 3.34 | TGI (HT29; HT29, 48 h): 10.1 µM | SI (TGI) (HT29; HT29, MG_MID_60/value): 1.84 | GI50 (HT29; Homo sapiens, HT-29, HT29, 48 h): 0.923 µM | CC50 (HT29; Homo sapiens, HT-29, HT29, 48 h, read-out: LC50 (the source's name)): 47.6 µM | GI50 (SF-295; Homo sapiens, SF-295, 48 h): 2.27 µM | CC50 (SF-295; Homo sapiens, SF-295, 48 h, read-out: LC50 (the source's name)): 40.9 µM | Growth % (SF-295): −73.38% | TGI (SF-295; SF-295, 48 h): 13.4 µM | SI (TGI) (SF-295; SF-295, MG_MID_60/value): 1.39 | GI50 (SK-MEL-5; Homo sapiens, SK-MEL-5, 48 h): 2.46 µM | CC50 (SK-MEL-5; Homo sapiens, SK-MEL-5, 48 h, read-out: LC50 (the source's name)): 39.1 µM | TGI (SK-MEL-5; SK-MEL-5, 48 h): 14.1 µM | SI (TGI) (SK-MEL-5; SK-MEL-5, MG_MID_60/value): 1.32 | GI50 (MCF7; Homo sapiens, MCF7, 48 h): 1.79 µM | CC50 (MCF7; Homo sapiens, MCF7, 48 h, read-out: LC50 (the source's name)): 44.7 µM | TGI (MCF7; MCF7, 48 h): 11.9 µM | SI (TGI) (MCF7; MCF7, MG_MID_60/value): 1.56 | cells with active caspase 7 (caspase 7): 19.85 ± 0.07% | Reduced ΔΨm, cell population (MCF-7 cells [2]): 22.35 ± 3.06%

COc1cc(NC2=NC(=O)C(=Cc3cccs3)S2)cc(OC)c1OC [Les-6423, 5-(Thiophen-2-ylmethylene)-2-((3,4,5-trimethoxyphenyl)amino)thiazol-4(5H)-one]
cells with active caspase 9 (caspase 9): did not show any effect | cells with active caspase 10 (caspase 10): did not show any effect
